Reference: ChEMBL document CHEMBL1201862, “PubChem BioAssay data set” (2004)
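Compound exposure: 48 hours, 5 concentrations, 96-well plates. GI50 = concentration required for 50% inhibition of growth.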 Calls of active or inactive are those of the source. No stated cut-off is given here; in the data, active = GI50 up to about 1.1 µM and inactive = higher.

Legend:
Assay in all cases: NCI-60 cell line screen, 48 h
[1] = test system: OVCAR-5
[2] = test system: 786-0
[3] = test system: KM12
[4] = test system: HL-60
[5] = test system: SR
[6] = test system: UACC-257
[7] = test system: MOLT-4
[8] = test system: LOX IMVI
[9] = test system: SK-MEL-2
[10] = test system: COLO 205
[11] = test system: M14
[12] = test system: A549
[13] = test system: SNB-19
[14] = test system: RXF 393
[15] = test system: RPMI-8226

Measured: GI50

CC(C)(C)C1(O)Cc2ccccc2C(=O)O1 (stereo not given)
inactive: [1] > 100 µM | [2] > 100 µM | [3] > 100 µM | [4] > 100 µM | [5] > 100 µM | [6] > 100 µM | [7] > 100 µM | [8] > 100 µM | [9] > 100 µM | [10] > 100 µM | [11] > 100 µM | [12] > 100 µM | [13] > 100 µM | [14] > 100 µM

CCOc1ccc(/N=N/c2ccc3oc(=O)c(C(=O)Nc4ccc(OC)cc4)cc3c2)cc1
inactive: [1] 32 µM | [2] 21.9 µM | [3] 30.8 µM | [4] 2.88 µM | [6] 27.9 µM | [7] 4.07 µM | [8] 11.4 µM | [9] 18.6 µM | [10] 47.9 µM | [11] > 10 µM | [12] 40.1 µM | [13] 14 µM | [15] 11.1 µM

O=C(O)CSc1nnc(-c2ccccc2)[nH]1
inactive: [1] > 100 µM | [2] > 100 µM | [3] > 100 µM | [4] > 100 µM | [7] > 100 µM | [8] > 100 µM | [9] > 100 µM | [10] > 100 µM | [11] > 100 µM | [12] > 100 µM | [13] > 100 µM | [14] > 100 µM | [15] > 100 µM

Cn1c2c(c3ccccc31)CCN(CCCCN1CCN(c3cccc(Cl)c3)CC1)C2=O
inactive: [1] 4.56 µM | [2] 13 µM | [4] 3.67 µM | [6] 7.03 µM | [7] 7.62 µM | [9] 16.7 µM | [10] 2.91 µM | [11] 3.3 µM | [12] 20.5 µM | [13] 17.7 µM | [14] 7.94 µM | [15] 5.66 µM

C/C(=N/O)c1sc(-c2nc(C)c(/C(C)=N\O)s2)nc1C
inactive: [2] > 100 µM | [4] > 100 µM | [5] > 100 µM | [6] > 100 µM | [7] > 100 µM | [8] > 100 µM | [10] > 100 µM | [11] > 100 µM | [12] > 100 µM | [13] > 100 µM | [14] > 100 µM | [15] > 100 µM

C(/C=C/N1CCCC1)=C\c1nc(N2CCCC2)c2ccccc2n1
inactive: [1] 15.6 µM | [2] 16.6 µM | [3] 17.1 µM | [4] 23.4 µM | [5] 13.6 µM | [6] 33.2 µM | [7] 17.3 µM | [8] 17.5 µM | [9] 22.1 µM | [10] 14.4 µM | [11] 18 µM | [12] 48.5 µM | [13] 18.5 µM | [15] 17.4 µM

COc1ccc2c(c1)CC1c3c(cc4c(c3-2)OCO4)CCN1C (stereo not given)
inactive: [1] 30.1 µM | [2] 27.6 µM | [3] 30.9 µM | [6] 24.1 µM | [7] 20 µM | [9] 26.5 µM | [10] 15.8 µM | [11] 22.8 µM | [12] 21.4 µM | [13] 42 µM | [15] 24.8 µM

COc1ccc(C=O)cc1O[Si](C)(C)C(C)(C)C
inactive: [1] > 100 µM | [2] > 100 µM | [3] > 100 µM | [4] > 100 µM | [6] > 100 µM | [7] > 100 µM | [8] > 100 µM | [9] > 100 µM | [10] > 100 µM | [11] > 100 µM | [12] > 100 µM | [13] > 100 µM | [14] > 100 µM | [15] > 100 µM

COC(=O)/C(C#N)=C1\NN=NN1CCCN1CCOCC1
inactive: [2] > 100 µM | [3] > 100 µM | [6] > 100 µM | [7] > 100 µM | [8] > 100 µM | [10] > 100 µM | [11] > 100 µM | [12] > 100 µM | [13] > 100 µM | [14] > 100 µM | [15] > 100 µM

C/C=C/C=N/N(c1nnc(-c2ccccc2)c(-c2ccccc2)n1)S(=O)(=O)c1ccc(C)cc1
inactive: [1] 19.3 µM | [2] 6.78 µM | [3] 9.06 µM | [4] 2.33 µM | [5] 3.48 µM | [6] 8.34 µM | [7] 3.18 µM | [8] 3.6 µM | [9] 11.4 µM | [10] 17.1 µM | [11] 4.69 µM | [12] 12 µM | [15] 4.19 µM

O=C(/C=C/c1ccccc1)c1ccc(Cl)cc1Cl
inactive: [1] 20.6 µM | [2] 17.9 µM | [3] 15.9 µM | [4] 14.8 µM | [6] 23.8 µM | [7] 18.1 µM | [10] 20.5 µM | [11] 23.2 µM | [12] 25.8 µM | [13] 27.5 µM | [15] 3.76 µM

CC(=O)/C=C/c1ccc(C)cc1
inactive: [1] > 100 µM | [2] > 100 µM | [3] > 100 µM | [4] > 100 µM | [6] > 100 µM | [7] > 100 µM | [8] > 100 µM | [9] > 100 µM | [10] > 100 µM | [11] > 100 µM | [12] > 100 µM | [13] > 100 µM | [14] > 100 µM | [15] > 100 µM

C=C(C)C1CC[C@]2(C(=O)O)CCC3(C)[C@H](CCC4[C@@]5(C)CC[C@H](OC6OC(CO)C(O)C6OC6OC(C)C(O)C(O)C6O)[C@@](C)(CO)C5CC[C@]43C)C12 (stereo not given in full)
inactive: [1] > 100 µM | [2] > 100 µM | [3] > 100 µM | [4] > 100 µM | [5] > 100 µM | [7] > 100 µM | [8] > 100 µM | [9] > 100 µM | [10] > 100 µM | [11] > 100 µM | [12] > 100 µM | [13] > 100 µM | [14] > 100 µM

O=S(=O)(O)c1ccc(-c2c3nc(c(-c4ccc(S(=O)(=O)O)cc4)c4ccc([nH]4)c(-c4ccc(S(=O)(=O)O)cc4)c4nc(c(-c5ccc(S(=O)(=O)O)cc5)c5ccc2[nH]5)C=C4)C=C3)cc1
inactive: [1] > 100 µM | [2] > 100 µM | [3] > 100 µM | [6] > 100 µM | [7] > 100 µM | [8] > 100 µM | [9] 27.1 µM | [10] > 100 µM | [11] 90.6 µM | [12] 55 µM | [13] > 100 µM | [14] 19.9 µM | [15] > 100 µM

CCCCC1CC(c2cccc([N+](=O)[O-])c2)=NO1 (stereo not given)
inactive: [1] > 100 µM | [2] > 100 µM | [3] > 100 µM | [4] 30.4 µM | [5] > 100 µM | [6] 48.3 µM | [7] 36.4 µM | [9] > 100 µM | [10] > 100 µM | [11] > 100 µM | [12] 30.5 µM | [13] > 100 µM | [15] 74.3 µM

CN(C(=O)C1CC1)C1C2CN3CCC(O2)C13 (stereo not given)
inactive: [1] > 100 µM | [2] > 100 µM | [3] > 100 µM | [4] > 100 µM | [6] > 100 µM | [7] > 100 µM | [8] > 100 µM | [9] > 100 µM | [10] > 100 µM | [11] > 100 µM | [12] > 100 µM | [13] > 100 µM | [14] > 100 µM | [15] > 100 µM

O=C(/C=C/c1ccccc1O)c1cccnc1
inactive: [1] > 100 µM | [2] > 100 µM | [3] > 100 µM | [4] > 100 µM | [5] > 100 µM | [6] > 100 µM | [7] > 100 µM | [8] > 100 µM | [9] > 100 µM | [11] > 100 µM | [12] > 100 µM | [13] > 100 µM | [14] > 100 µM

Cc1cc(NS(=O)(=O)c2ccc(NC(=O)c3ccc(Cl)c4c(Nc5ccc(S(=O)(=O)Nc6cc(C)on6)cc5)c5ccccc5nc34)cc2)no1
inactive: [1] 21 µM | [2] 16 µM | [3] 19.7 µM | [4] 21.3 µM | [6] 20.2 µM | [7] 29 µM | [8] 18.5 µM | [9] 20.9 µM | [10] 22.4 µM | [11] 22.2 µM | [12] 25.6 µM | [13] 14.4 µM | [14] > 10 µM | [15] 27.5 µM

CN(/N=C/c1ccnc2ccccc12)c1ccc([N+](=O)[O-])cc1[N+](=O)[O-]
inactive: [1] > 100 µM | [2] 30.6 µM | [3] > 100 µM | [4] > 100 µM | [6] > 100 µM | [7] > 100 µM | [8] 81.7 µM | [9] 28.6 µM | [10] > 100 µM | [11] > 100 µM | [12] > 100 µM | [13] 77.4 µM | [14] 41.8 µM | [15] > 100 µM

CCc1cccc(C)c1NC(=O)CC1Sc2ccccc2NC1=O (stereo not given)
inactive: [1] 42.4 µM | [2] 29.2 µM | [3] 34.9 µM | [4] 18.1 µM | [6] 11.4 µM | [7] 29.2 µM | [8] 48.8 µM | [9] 33.6 µM | [10] 53.7 µM | [11] 39.4 µM | [12] 44.2 µM | [13] 57.4 µM | [14] 16.9 µM | [15] 24.4 µM
